Data set [1] is described as follows: Oral absorption (blood level after oral administration). Format: in vivo. To be noted: Wistar male rat, 30 mg/ml/kg, serum. As to the method:
After administration, the rat is fixed on a plate with nails and strings. […] The serum was obtained by centrifuging with a blood serum separating tube ([…] tube). To 100 μl of the serum thus obtained was added 300 μl of methanol, and the mixture was centrifuged. Next, 50 μl of the supernatant was applied to a high-performance liquid chromatography, and the blood level of the compound was measured. Conditions of the high-performance liquid chromatography are as follows: Column: […] 300, 4.6 mm diameter and 150 mm length Eluent: 48% CH3 CN-0.01% TFA Flow rate: 1 ml/minute Detection: UV 290 nm Sensitivity: 0.01 AUFS Colume temperature: 50° C. As Comparative Example 10, the compound expressed in the following chemical formula disclosed in U.S. Pat.

Data set [2] can be described thus: In vitro drug metabolism in rat liver extract. Format: in vitro ADME, male Wistar rats. To be noted: pH 7.4, 37° C.; for remaining at 5 min / remaining at 0.25 h / remaining at 0.5 h / remaining at 1 h: rat liver extract; for remaining at 5 min: read-out: Residual amount of test compound, 5 min.; for remaining at 0.25 h: 15 min., read-out: Residual amount of test compound, 15 min.; for remaining at 0.5 h: 30 min., read-out: Residual amount of test compound, 30 min.; for remaining at 1 h: 60 min., read-out: Residual amount of test compound, 60 min.; for half-life: half-life in the rat liver extract, read-out: Half-time period. As to the method: 2. In vitro drug metabolism in rat liver extract
The resistance of the compound against metabolic degradation by rat liver extract was investigated.
The male Wistar rats (weighing about 200 g) were used after fasting for 24 hours. The rat was sacrificed under ether anesthesia, and the livers were removed and were placed onto the ice.
The liver was minced with scissors under ice-cooling, and homogenized in the presence of 4 volumes of 1.15% KCl-0.1M phosphate buffer (pH 7.4) with a Potter type homogenizer. The homogenates were centrifuged at 9,000×g for 10 minutes at 4° C., and the supernatant filtered through the cheese-cloth was used as an enzyme solution.
The constitution of the reaction mixture was shown in below. 0.1M Buffer was sufficiently bubbled in 95% O2 -5% CO2 gas before use.
Glucose 6-phosphate (60.8 mg.ml)
Nicotineamide (9.16 mg/ml)
The tested samples were dissolved in dimethyl sulfoxide. MgCl2 ·6H2 O was dissolved in a distilled water, and all other reagents were dissolved in 0.1M phosphate buffer. The reaction was initiated by adding enzyme solution, and shaked at 37° C. with 120 cycles/minutes in Spitz test tubes with stoppers. The reaction was stopped by adding methanol after 5, 15, 30 and 60 minutes.
After termination of the reaction, samples were mixed by using of a Vortex mixer, and centrifuged at 3,000 rpm for 10 minutes. The supernatant was applied to a high-performance liquid chromatography of which conditons are shown in below. A residual amount of the mother compound was determined at certain time intervals, whererby half-life of the compound in the rat liver extract was calculated.
Column: Chemcosorb 5C18-300 Å 4.6 mm diameter and 150 mm length
Colume temperature: 50° C.

The target of data set [3] is T1, rat prostate androgen receptor (Rattus norvegicus, UniProt P15207).
T1 sequence (P15207 1-902): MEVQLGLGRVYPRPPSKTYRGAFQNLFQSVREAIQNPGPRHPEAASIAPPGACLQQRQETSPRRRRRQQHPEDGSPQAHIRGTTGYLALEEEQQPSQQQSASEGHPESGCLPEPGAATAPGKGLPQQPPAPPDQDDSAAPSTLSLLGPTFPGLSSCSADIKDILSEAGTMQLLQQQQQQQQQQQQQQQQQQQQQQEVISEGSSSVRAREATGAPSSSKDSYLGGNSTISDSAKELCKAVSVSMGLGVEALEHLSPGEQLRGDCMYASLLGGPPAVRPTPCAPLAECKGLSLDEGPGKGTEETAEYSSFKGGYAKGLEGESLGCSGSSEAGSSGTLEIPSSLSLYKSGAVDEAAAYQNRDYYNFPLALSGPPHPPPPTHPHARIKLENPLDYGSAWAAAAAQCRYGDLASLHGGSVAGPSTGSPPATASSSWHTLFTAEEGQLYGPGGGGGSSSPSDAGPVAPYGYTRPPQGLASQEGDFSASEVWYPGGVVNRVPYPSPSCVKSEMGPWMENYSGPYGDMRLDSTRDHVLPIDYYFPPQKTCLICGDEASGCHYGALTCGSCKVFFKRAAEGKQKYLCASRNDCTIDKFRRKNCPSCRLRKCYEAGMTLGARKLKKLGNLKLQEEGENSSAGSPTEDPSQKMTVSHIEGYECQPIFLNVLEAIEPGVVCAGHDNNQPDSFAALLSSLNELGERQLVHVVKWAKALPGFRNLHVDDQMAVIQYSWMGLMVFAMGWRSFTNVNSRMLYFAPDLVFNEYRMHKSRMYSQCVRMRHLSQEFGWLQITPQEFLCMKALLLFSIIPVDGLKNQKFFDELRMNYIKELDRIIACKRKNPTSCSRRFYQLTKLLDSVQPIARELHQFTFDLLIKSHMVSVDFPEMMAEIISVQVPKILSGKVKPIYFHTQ
To be noted: 1 nM ^3 H-mibolerone, 20 hours at 0° C., rat ventral prostate cytosol; read-out: Inhibitory activity on mibolerone specific binding [IC50 (M)].
Experimental: Assay of inhibitory activity to binding of ^3 H-mibolerone on rat prostate androgen receptor
(1) Preparation of Cytosol from Rat Prostate
The rats were killed 24 hours after castration, and the ventral prostate glands were removed, and was gently homogenized, with three volume of buffer solution A (1.5 mM EDTA, 2 mM dithiothreitol, 10 mM molybdate sodium, 10% by volume of glycerol, 10 mM NaF, 25 mM phosphate sodium, pH 7.2) on ice-water bath, in Polytron, and Potter type homogenizer. The obtained homogenate was filtrated through double gauze, and centrifuged at 105,000×g for 60 minutes at 4° C., and the supernatant was obtained as cytoplasm fraction.
(2) Measurement of Specific binding of ^3 H-mibolerone to Prostate Cytoplasm Androgen Receptor
To the cytoplasm fraction obtained in (1) was added ^3 H-mibolerone (87.0 Ci/millimol), so that a final concentration is adjusted to 1 nM, and at the same time, in order to block binding of ^3 H-mibolerone to progestin receptor, triamsinolone acetonide was added to a final concentration of 5 μM, and the final volume was adjusted to 0.4 ml with buffer solution A, and the reaction mixture was incubated for 20 hours at 0° C. After incubation, 0.5 ml of 60% hydroxylapatite slurry (washed and equilibrate with a buffer solution B: 10 mM NaH2 PO4, 20 mM tris-hydrochloric acid, pH 7.2) was added, and incubated for 10 minutes at 0° C., the solution was transferred onto a glass fiber filter, and washed five times with 5 ml portions of buffer solution B containing 0.1% (weight/volume) of Triton X-100, to remove free ^3 H-mibolerone. This glass fiber was transferred into vial, and 10 ml of aquasol- 2 was added, and the radioactivity was measured, and the total binding amount of ^3 H-mibolerone on prostate cytoplasm androgen receptor was determined.
The nonspecific binding amount was determined similarly by adding an unlabeled 5α-DHT in the reaction solution to a final concentration of 1 μM. The difference between the total binding amount and nonspecific binding amount was determined as the specific binding amount on the androgen receptor.
(3) Inhibitory Activity of Sample Compounds on ^3 H-mibolerone Specific Binding
The various concentrations of compounds obtained in the experiments were added simultaneously with ^3 H-mibolerone to incubate same as in (2), and the specific binding amount of ^3 H-mibolerone on androgen receptor was determined. Comparing this value with the value obtained in (2), the IC50 value of inhibitory activity of the compounds on ^3 H-mibolerone specific binding was determined.

Structures are written as SMILES.

For `CCc1ccccc1NS(=O)(=O)c1ccc(-c2cnn3c(O)ncnc23)cc1` [Comparative Example 10, reference compound], in data set [1] (30 mg/kg), the concentration at 4 h was 112 ng/mL and the concentration at 8 h stood at 31 ng/mL. In addition, in data set [1] (20 minutes), the “Blood Level, 20 minutes” value is 0 ng/mL. Further, the “Blood Level, 1 hours” value in data set [1] (1 hour) was 0 ng/mL. In addition, in data set [1] (2 hours), the “Blood Level, 2 hours” value was 0 ng/mL.
What is called IC50 is the point on the concentration scale where inhibition reaches its midpoint. With `Oc1ncnc2c(-c3ccc(Cc4ccccc4)cc3)cnn12` [Example 1, 8-(4-benzylphenyl)-4-hydroxypyrazolo[1,5-a]-1,3,5-triazine], in data set [2], the remaining at 5 min amounted to 92.2%, the remaining at 0.25 h was determined as 62.4%, the remaining at 0.5 h was 60.2% and the remaining at 1 h came out at 42.9%. The half-life in data set [2] came out at 0.75 h. The compound further showed a concentration at 20 min in data set [1] (30 mg/kg, 20 minutes) of 1590 ng/mL. For the same compound, in data set [1] (30 mg/kg, 1 hour), the concentration at 1 h was found to be 2690 ng/mL. The same compound showed a concentration at 2 h in data set [1] (30 mg/kg, 2 hours) of 1250 ng/mL. In data set [1] (30 mg/kg), the concentration at 4 h came out at 1420 ng/mL and the concentration at 8 h was 731 ng/mL. In addition, the 50% inhibitory concentration (IC50) in data set [3] is 2.8e-07 M.
Turning to `Cc1cc(-c2cnn3c(O)ncnc23)ccc1Cc1ccccc1` [Example 5, 8-(4-benzyl-3-methyl)phenyl-4-hydroxypyrazolo[1,5-a]-1,3,5-triazine], in data set [2], the remaining at 5 min amounted to 93.7%, the remaining at 0.25 h came to 89.9%, the remaining at 0.5 h is 82.7% and the remaining at 1 h stood at 83.8%. The half-life in data set [2] was > 1 h. Also, in data set [3], the IC50 is 3e-08 M.
As to `COc1cccc(Cc2ccc(-c3cnn4c(O)ncnc34)cc2C)c1` [Example 10, 4-hydroxy-8-[4-(3-methoxyphenylmethyl)-3-methyl]phenylpyrazolo[1,5-a]-1,3,5-triazine], in data set [2], the remaining at 5 min is 77.6%, the remaining at 0.25 h stood at 57.1%, the remaining at 0.5 h worked out at 62% and the remaining at 1 h is 55.2%. Besides, in data set [2], the half-life was > 1 h. The 50% inhibitory concentration (IC50) in data set [3] turned out to be 1.2e-08 M.
As for `COc1cccc(Cc2ccc(-c3cnn4c(O)ncnc34)cc2OC)c1` [Example 11], in data set [2], the remaining at 5 min came out at 98.3%, the remaining at 0.25 h came out at 98.8%, the remaining at 0.5 h was determined as 91.5% and the remaining at 1 h was determined as 87.9%. Besides, the half-life in data set [2] was > 1 h. In addition, the IC50 in data set [3] was found to be 1.8e-08 M.
With `COc1cc(-c2cnn3c(O)ncnc23)ccc1Cc1cccc(C)c1` [Example 12], in data set [2], the remaining at 5 min was determined as 93%, the remaining at 0.25 h came out at 91.8%, the remaining at 0.5 h worked out at 97.4% and the remaining at 1 h was 90.8%. In data set [2], the half-life is > 1 h. Besides, in data set [3], the IC50 was 2.3e-08 M.
On to `Cc1cccc(Cc2ccc(-c3cnn4c(O)ncnc34)cc2)c1` [Example 13, 4-hydroxy-8-[4-(3-methylphenylmethyl)phenyl]pyrazolo[1,5-a]-1,3,5-triazine], for which, in data set [2], the remaining at 5 min is 106%, the remaining at 0.25 h was determined as 100%, the remaining at 0.5 h was 97.6% and the remaining at 1 h amounted to 81.4%. Also, the half-life in data set [2] was > 1 h. For the same compound, the IC50 in data set [3] amounted to 1.2e-07 M.
Take `Cc1ccccc1Cc1ccc(-c2cnn3c(O)ncnc23)cc1` [Example 14, 4-hydroxy-8-[4-(2-methylphenylmethyl)phenyl]pyrazolo[1,5-a]-1,3,5-triazine]: in data set [2], the remaining at 5 min turned out to be 82.9%, the remaining at 0.25 h turned out to be 77.8%, the remaining at 0.5 h came out at 82.5% and the remaining at 1 h turned out to be 55.5%. In data set [2], the half-life is > 1 h. Also, the half-inhibitory concentration (IC50) in data set [3] is 6.4e-07 M.
On to `COc1cccc(Cc2ccc(-c3cnn4c(O)ncnc34)cc2)c1` [Example 15, 4-hydroxy-8-[4-(3-methoxyphenylmethyl)phenyl]pyrazolo[1,5-a]-1,3,5-triazine], for which, in data set [2], the remaining at 5 min came out at 86.1%, the remaining at 0.25 h amounted to 68.9%, the remaining at 0.5 h was determined as 64.7% and the remaining at 1 h is 51.9%. For the same compound, the half-life in data set [2] was > 1 h. The IC50 in data set [3] stood at 9.9e-08 M.
Regarding `CC(c1ccccc1)c1ccc(-c2cnn3c(O)ncnc23)cc1` (stereo not drawn) [Example 19, 4-hydroxy-8-[4-(α-methylbenzyl)phenyl]pyrazolo[1,5-a]-1,3,5-triazine], in data set [2], the remaining at 5 min is 94.4%, the remaining at 0.25 h came to 84.7%, the remaining at 0.5 h is 68.3% and the remaining at 1 h turned out to be 42.4%. For the same compound, the half-life in data set [2] was found to be 0.867 h. For the same compound, in data set [3], the IC50 was determined as 3.9e-08 M.
As for `COc1cccc(Cc2ccc(-c3cnn4c(O)ccnc34)cc2)c1` [Example 28, 7-hydroxy-3-[4-(3-methoxyphenylmethyl)phenyl]pyrazolo[1,5-a]pyrimidine], in data set [2], the remaining at 5 min stood at 88.5%, the remaining at 0.25 h turned out to be 74.3%, the remaining at 0.5 h was 66% and the remaining at 1 h was 53.4%. Further, the half-life in data set [2] was > 1 h. For the same compound, the IC50 in data set [3] worked out at 1.2e-07 M.

These data come from patent US5516777A, “Condensed pyrazole derivatives, and androgen inhibitor” (Otsuka Pharmaceutical Co., Ltd., priority 1992, dated 1996).
